In PubChem BioAssay (NCI):
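48-hour exposure; five concentrations; linearly interpolated endpoints. The concentration for full growth arrest is given as TGI.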

How the values were obtained:
Assay in all cases: growth of human tumour cells (NCI), 48 h
786-0 renal = test system: 786-0 renal
HCT-116 colon = test system: HCT-116 colon
HCT-15 colon = test system: HCT-15 colon
HS 578T breast = test system: HS 578T breast
HT29 colon = test system: HT29 colon
IGROV1 ovarian = test system: IGROV1 ovarian
HOP-92 NSCLC = test system: HOP-92 NSCLC
COLO 205 colon = test system: COLO 205 colon
UO-31 renal = test system: UO-31 renal
TK-10 renal = test system: TK-10 renal
CAKI-1 renal = test system: CAKI-1 renal
A549 NSCLC = test system: A549 NSCLC
OVCAR-5 ovarian = test system: OVCAR-5 ovarian
ACHN renal = test system: ACHN renal
PC-3 prostate = test system: PC-3 prostate
HL-60(TB) leukemia = test system: HL-60(TB) leukemia
MALME-3M melanoma = test system: MALME-3M melanoma
SF-295 CNS = test system: SF-295 CNS
NCI-H522 lung = test system: NCI-H522 lung
OVCAR-8 ovarian = test system: OVCAR-8 ovarian
NCI/ADR-RES ovarian = test system: NCI/ADR-RES ovarian
K-562 leukemia = test system: K-562 leukemia
MDA-MB-435 = test system: MDA-MB-435
T-47D breast = test system: T-47D breast
RPMI-8226 leukemia = test system: RPMI-8226 leukemia
M14 melanoma = test system: M14 melanoma
OVCAR-4 ovarian = test system: OVCAR-4 ovarian
SN12C renal = test system: SN12C renal
MCF7 breast = test system: MCF7 breast
SNB-75 CNS = test system: SNB-75 CNS
KM12 colon = test system: KM12 colon
HCC-2998 colon = test system: HCC-2998 colon
SW-620 colon = test system: SW-620 colon
DU-145 prostate = test system: DU-145 prostate
SK-MEL-28 melanoma = test system: SK-MEL-28 melanoma
SK-MEL-5 melanoma = test system: SK-MEL-5 melanoma
U251 CNS = test system: U251 CNS
A498 renal = test system: A498 renal
LOX IMVI melanoma = test system: LOX IMVI melanoma
RXF 393 renal = test system: RXF 393 renal
SK-OV-3 ovarian = test system: SK-OV-3 ovarian
BT-549 breast = test system: BT-549 breast
MDA-N = test system: MDA-N
NCI-H226 lung = test system: NCI-H226 lung
NCI-H23 lung = test system: NCI-H23 lung
SK-MEL-2 melanoma = test system: SK-MEL-2 melanoma
CCRF-CEM leukemia = test system: CCRF-CEM leukemia
SF-268 CNS = test system: SF-268 CNS
SF-539 CNS = test system: SF-539 CNS
EKVX NSCLC = test system: EKVX NSCLC
SNB-19 CNS = test system: SNB-19 CNS
NCI-H460 lung = test system: NCI-H460 lung
UACC-257 melanoma = test system: UACC-257 melanoma
UACC-62 melanoma = test system: UACC-62 melanoma
SR leukemia = test system: SR leukemia
HOP-62 NSCLC = test system: HOP-62 NSCLC
MOLT-4 leukemia = test system: MOLT-4 leukemia

Q: Which results are given for `CC(=O)N=C1C=C(NC(C)=O)C(=O)c2ccccc21`?
A: TGI (786-0 renal): 3.37 µM; TGI (HCT-116 colon): 3.62 µM; TGI (HCT-15 colon): 9.13 µM; TGI (HS 578T breast): 56.5 µM; TGI (HT29 colon): 6.27 µM; TGI (IGROV1 ovarian): 3.59 µM; TGI (HOP-92 NSCLC): 3.15 µM; TGI (COLO 205 colon): 3.79 µM; TGI (UO-31 renal): 4.26 µM; TGI (TK-10 renal): 12.3 µM; TGI (CAKI-1 renal): 3.43 µM; TGI (A549 NSCLC): 19.1 µM; TGI (OVCAR-5 ovarian): 4.58 µM; TGI (ACHN renal): 3.12 µM; TGI (PC-3 prostate): 7.49 µM; TGI (HL-60(TB) leukemia): 6.84 µM; TGI (MALME-3M melanoma): 3.62 µM; TGI (SF-295 CNS): 8.88 µM; TGI (NCI-H522 lung): 3.06 µM; TGI (OVCAR-8 ovarian): 6.04 µM; TGI (NCI/ADR-RES ovarian): 7.59 µM; TGI (K-562 leukemia): 7.01 µM; TGI (MDA-MB-435): 3.48 µM; TGI (T-47D breast): 4.05 µM; TGI (RPMI-8226 leukemia): 4.13 µM; TGI (M14 melanoma): 3.33 µM; TGI (OVCAR-4 ovarian): 3.09 µM; TGI (SN12C renal): 3.47 µM; TGI (MCF7 breast): 3.46 µM; TGI (SNB-75 CNS): 8.66 µM; TGI (KM12 colon): 17.5 µM; TGI (HCC-2998 colon): 34.3 µM; TGI (SW-620 colon): 3.86 µM; TGI (DU-145 prostate): 3.18 µM; TGI (SK-MEL-28 melanoma): 8.04 µM; TGI (SK-MEL-5 melanoma): 3.19 µM; TGI (U251 CNS): 10.7 µM; TGI (A498 renal): 28.6 µM; TGI (LOX IMVI melanoma): 3.19 µM; TGI (RXF 393 renal): 5.46 µM; TGI (SK-OV-3 ovarian): 19.9 µM; TGI (BT-549 breast): 4.85 µM; TGI (MDA-N): 3.38 µM; TGI (NCI-H226 lung): 14.9 µM; TGI (NCI-H23 lung): 2.3 µM; TGI (SK-MEL-2 melanoma): 10.7 µM; TGI (CCRF-CEM leukemia): 7.62 µM; TGI (SF-268 CNS): 10.2 µM; TGI (SF-539 CNS): 6.39 µM; TGI (EKVX NSCLC): 12.5 µM; TGI (SNB-19 CNS): 7.9 µM; TGI (NCI-H460 lung): 28.1 µM; TGI (UACC-257 melanoma): 3.33 µM; TGI (UACC-62 melanoma): 6.18 µM; TGI (SR leukemia): 4.06 µM; TGI (HOP-62 NSCLC): 40.4 µM; TGI (MOLT-4 leukemia): 5.17 µM
